Laboratory results: patent publication US20260184692A1, “HETEROCYCLIC COMPOUNDS, PREPARATION METHODS AND USES THEREOF” (InventisBio Co., Ltd., priority 2022, published 2026)

Legend:
OVCAR3 Cells = experiment: OVCAR3 Cell Viability Assay (CellTiter-Glo); format: cell-based; settings: Homo sapiens, OVCAR-3, 144 h, 6 days incubation, read-out: OVCAR3 CTG IC50
Protocol: (§1) OVCAR3 Cells (ATCC, Cat #HTB-161) were seeded at a density of 2000 cells/well in a 96-well clear bottom plate (Greiner, Cat #655098) in 100 μL of complete media (RPMI1640+20% FBS+0.01 mg/mL human insulin). One hundred microliter of complete media was added into the blank well (column 1) for low control. Cells were allowed to adhere to the plate overnight in the incubator at 37° C., 5% CO2. On the following day, 0.5 μL of serially-diluted compounds were added to the cells (columns 2-10) and incubated for 6 days at 37 C, 5% CO2 (final 0.5% DMSO concentration); 0.5 μL of DMSO solution was added into the wells (column 11) for high control. Cell viability was detected according to the CellTiter-Glo Luminescent Cell Viability Assay Kit (Promega, Cat #G7573). Luminescence was recorded on the Tecan Spark plate reader. Inhibition rate (IR) of the tested compounds was determined by the following formula: IR (%)=(1−(RLUcompound−RLUlow control)/(RLUhigh control−RLUlow control))×100%. The IC50 value was calculated using the non-linear regression equation: Y=Bottom+(Top−Bottom)/(1+10^((Log IC50−X)×HillSlope)), where X is Log of compound concentration, Y is percent inhibition (IR (%)), Top and Bottom are plateaus in same units as Y.

[1] = Human Plasma Protein Binding Assay (dialysis); format: in vitro ADME; settings: 1 μM compound, dialysis 6 hr at 37 °C
Protocol: The plasma protein binding of compounds in human plasma was determined using a dialysis method. The dialysis membrane strips were prepared by soaking them in ultra-pure water for about 1 hr at room temperature, followed by separation and soaking in ethanol:water (20:80 v:v) for about 20 min, and a final rinse with ultra-pure water. Prior to use, the membranes were rinsed and soaked for another 20 min in ultra-pure water.
The blank plasma samples were thawed, centrifuged and verified its pH values. Only the plasma with pH between 7.0-8.0 was used in the experiment. The final concentration of compound in the spiked plasma is 1 μM, with final DMSO<=1%. All samples were prepared in triplicates. The time zero (T0) samples was used for determining the recovery of the compound of interest after dialysis. It was prepared in the same way as other dialysis samples except it was stored at 2-8° C. before LC-MS/MS analysis.
The other spiked plasma samples were loaded onto the dialysis device and incubated at and 37±1° C. with 5% CO2 for 6 hr. At the end of the dialysis, aliquots of samples from the plasma and buffer sides of the dialysis device were taken and processed for LC-MS/MS analysis.
The % Unbound, % Bound, and % Recovery of the compounds were calculated from the peak area ratios of the analyte and internal standard in the plasma and buffer samples as shown in the following equations:
[formula] [formula] [formula] • where [F] is the peak area ratio of analyte/internal standard on the buffer (receiver) side of the membrane; [T] is the peak area ratio of analyte/internal standard on the plasma (donor) side of the membrane; [T0] is the peak area ratio of analyte/internal standard in the plasma sample at time zero.

[2] = Human Microsomal Clearance Assay; format: in vitro ADME; settings: pH 7.4, human liver microsomes 0.5 mg/mL, 1 μM compound, 2 mM NADPH; for CLint scaled at 1 μM: in vitro intrinsic clearance
Protocol: This study aimed to assess the metabolic stability of a compound in human liver microsomes using a microsomal clearance assay.
A mixture containing 100 mM potassium phosphate, pH 7.4, 0.5 mg/mL liver microsomes, 2 mM NADPH, and 1 μM compound were prepared and added to 96-well plate. The plates were then incubated at 37° C. for different time points (0, 5, 15, 30, 45 minutes) and the reaction was stopped with acetonitrile solution containing an internal standard. The samples were then analyzed by LC/MS/MS to determine how much of the compound remained at each time point. The elimination rate constant and half-life were calculated from the data as follows: Elimination rate constant (k)=−slope; Half-life (T1/2)=0.693/k.
The in vitro intrinsic clearance, Clint, was calculated from the T1/2 as follows: Clint=(0.693/T1/2)×(1/(microsomal protein concentration (0.5 mg/mL)))×Physiological Scaling Factor.

HCC1806 Cells = experiment: HCC1806 Cell Viability Assay (CellTiter-Glo); format: cell-based; settings: Homo sapiens, 144 h, 6 days incubation, read-out: HCC1806 CTG IC50
Protocol: as §1, with “HCC1806 Cells” for “OVCAR3 Cells”, “Cat #CRL-2335)” for “Cat #HTB-161)”, “of 500” for “of 2000”, “media (RPMI1640+10% FBS).” for “media (RPMI1640+20% FBS+0.01 mg/mL human insulin).”, “blank wells” for “blank well”, “at 37° C.,” for “at 37 C,”

Mouse PK Assay = format: in vivo; settings: plasma, male BALB/c mouse; for MRT: IV; for half-life: single oral dose 5 mg/kg, read-out: PO T1/2 (converted)
PXR = biological target: T1, PXR (Homo sapiens, UniProt O75469); experiment: In Vitro PXR Activation Study (DPX2 cells); format: cell-based; settings: concentration 30 uM, 48 h treatment
T1 construct: expressed in transfected cells; host or cells: DPX2 cells
T1 sequence (O75469 1-434): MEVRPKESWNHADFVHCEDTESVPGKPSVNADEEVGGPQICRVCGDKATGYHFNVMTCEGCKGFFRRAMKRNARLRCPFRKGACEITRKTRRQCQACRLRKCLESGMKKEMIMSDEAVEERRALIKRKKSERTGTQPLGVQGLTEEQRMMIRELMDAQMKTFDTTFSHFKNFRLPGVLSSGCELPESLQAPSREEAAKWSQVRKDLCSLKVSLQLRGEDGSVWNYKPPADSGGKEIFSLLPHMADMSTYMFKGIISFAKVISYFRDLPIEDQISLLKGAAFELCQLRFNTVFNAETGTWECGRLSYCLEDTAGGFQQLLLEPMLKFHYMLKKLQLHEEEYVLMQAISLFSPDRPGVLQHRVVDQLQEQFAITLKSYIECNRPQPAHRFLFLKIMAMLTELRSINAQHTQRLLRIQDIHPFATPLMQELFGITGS
Protocol: Prepared the culture medium for DPX2 cells using DPX2 culturing medium supplemented with 10% FBS. Cultivated DPX2 cells in T-75 flasks in a cell culture incubator set at 37 C, 5% CO2, 95% relative humidity. Allowed cells to reach 80-90% confluence before detaching and splitting. Rinsed cultivated cells in T-75 flasks with 5 mL PBS. Aspirate off, add 1.5 mL trypsin, and incubated at 37° C. for approximately 5 minutes or until the cells detach and float. Inactivated trypsin by adding excess serum containing medium. Removed cell suspension to a conical tube and pellet cells by centrifugation at 150×g for 5 minutes. Resuspended cells in seeding medium at a density of 3.2×10^5 cells/mL. Transferred 25 μL to each well of 384-well cell culture plate. Placed plate(s) in incubator and incubate at 37° C. for 24 hours.
Prepared stock solutions of test compounds and inducers in DMSO. Final concentration of DMSO in the treatment group should be 0.1%. Removed the plates from the incubator and directly add 25 μL of the negative control, inducers, or test article solutions. Returned plates to the incubator for 48 hours. […] After 48 h of treatment, the cultures were ready for the determination of quantitation of PXR activation.
The fold-activation mRNA level was determined by the equation: […]

P450 2C9 = biological target: T2, P450 2C9 (Homo sapiens, UniProt P11712); experiment: In Vitro Cytochrome P450 Inhibition Study; format: in vitro ADME; settings: human liver microsomes (HLM), test compound 0.137 μM to 10 μM, 10 min at 37 °C
T2 construct: incubation with known industry-accepted CYP450 substrates, test articles and microsomes (HLM); from tissue; host or cells: liver microsomes (HLM)
T2 sequence (P11712 whole entry): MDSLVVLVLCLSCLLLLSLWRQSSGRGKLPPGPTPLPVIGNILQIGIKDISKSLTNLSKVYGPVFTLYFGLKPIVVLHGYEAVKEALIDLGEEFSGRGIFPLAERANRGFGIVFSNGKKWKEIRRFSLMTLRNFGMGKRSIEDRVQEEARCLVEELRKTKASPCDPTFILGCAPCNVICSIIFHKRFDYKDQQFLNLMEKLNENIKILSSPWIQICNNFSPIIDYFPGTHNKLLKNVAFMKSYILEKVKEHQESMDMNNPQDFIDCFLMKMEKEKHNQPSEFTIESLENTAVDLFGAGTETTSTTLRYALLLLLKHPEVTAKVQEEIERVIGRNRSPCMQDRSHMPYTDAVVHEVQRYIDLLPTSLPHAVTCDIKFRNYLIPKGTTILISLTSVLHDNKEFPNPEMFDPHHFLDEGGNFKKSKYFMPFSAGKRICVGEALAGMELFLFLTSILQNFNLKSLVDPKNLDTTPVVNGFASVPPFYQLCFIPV
Protocol: CYP inhibition was evaluated by monitoring corresponding metabolite decrease after incubation with known industry-accepted CYP450 substrates, test articles and microsomes (HLM).
Eight reaction wells with 30 μL of a solution containing 100 mM potassium phosphate, pH 7.4 and 1:3 serial dilutions of the test compound were prepared along with eight wells of 1:3 serial dilutions of Sulfaphenazole (a positive control inhibitor). The assay plates were pre-warmed after 15 μL of probe substrate was added into appropriate wells. Then the reactions were initiated by adding 15 μL of a pre-warmed 8 mM NADPH solution resulting in a final NADPH concentration of 2 mM. The concentrations of test compound ranged from 0.137 μM to 10 μM. A zero time-point control reaction was prepared by adding 135 μL acetonitrile (ACN) containing tolbutamide (200 ng/mL) as internal standard (IS) to 30 μL. of the reaction solution to inactivate the enzymes before adding the probe substrate. A control reaction with no inhibitor was also prepared. After a suitable incubation at 37° C., 10 min, the reactions were terminated by the addition of 135 μL ACN containing IS. The reactions were prepared and analyzed for the metabolite forms of the probe substrate using LC-MS/MS.

IC50 (OVCAR3 Cells) [nM] | fraction unbound at 6 hr, 1 μM [1] | IC50 (P450 2C9) [nM] | SMILES | further results
< 200 | 0.0014 |  | O=C1c2ccc(NS(=O)(=O)CCO)cc2C2(CCC3(CC3)CC2)CN1c1ccnc(NC2CCC(F)(F)C2)n1 (single isomer, unassigned) [Compound 71] | 
 |  |  | N#Cc1ccc(N2CC3(CCC4(CC4)CC3)c3cc(NS(=O)(=O)CCO)ccc3C2=O)nc1NC1CCC(F)(F)C1 (single isomer, unassigned) [Compound 110] | half-life at 1 μM [2]: 2.52 h; CLint scaled at 1 μM [2]: < 12.4 mL/min/kg
< 200 |  |  | O=C1c2ccc(NS(=O)(=O)CCO)cc2C2(CCC3(CC3)CC2)CN1c1ccnc(N2CCC(F)(F)CC2)n1 [Compound 1] | IC50 (HCC1806 Cells): < 200 nM; MRT (Mouse PK Assay): 7.5 h; half-life (Mouse PK Assay): 4.8 h
< 200 | 0.002 |  | O=C1c2ccc(NS(=O)(=O)CCO)cc2C2(CCC3(CC3)CC2)CN1c1ccnc(NC2CC(F)(F)C2)n1 [Compound 21] | 
< 200 |  |  | N#Cc1ccc(N2CC3(CCC4(CC4)CC3)c3cc(NS(=O)(=O)CCO)ccc3C2=O)nc1N1CCC(F)(F)CC1 [Compound 27] | IC50 (HCC1806 Cells): < 200 nM; MRT (Mouse PK Assay): 6.2 h; half-life (Mouse PK Assay): 3.7 h; Induction Fold (PXR): 1.8x
< 200 |  |  | N#Cc1ccc(N2CC3(CCC4(CC4)CC3)c3cc(NS(=O)(=O)CCO)ccc3C2=O)nc1NC1CC(F)(F)C1 [Compound 56] | half-life at 1 μM [2]: 2.37 h; CLint scaled at 1 μM [2]: < 12.4 mL/min/kg
< 200 |  | > 10000 | N#Cc1ccc(N2CC3(CCC4(CC4)CC3)c3cc(NS(=O)(=O)CCO)ncc3C2=O)nc1N1CCC(F)(F)CC1 [Compound 80] | 
< 200 |  | > 10000 | CC1(C)CCC2(CC1)CN(c1ccc(C#N)c(N3CCC(F)(F)CC3)n1)C(=O)c1ccc(NS(=O)(=O)CCO)cc12 [Compound 90] | 
< 200 |  |  | CC1(C)CCC2(CC1)CN(c1ccc(C#N)c(NC3CC(F)(F)C3)n1)C(=O)c1ccc(NS(=O)(=O)CCO)cc12 [Compound 95] | half-life at 1 μM [2]: 1.98 h; CLint scaled at 1 μM [2]: 14.6 mL/min/kg
< 200 |  | 6700 | N#Cc1ccc(N2CC3(CCC4(CCC4)CC3)c3cc(NS(=O)(=O)CCO)ccc3C2=O)nc1N1CCC(F)(F)CC1 [Compound 116] | MRT (Mouse PK Assay): 6.9 h; half-life (Mouse PK Assay): 4.6 h
< 200 | 0.0122 |  | CCS(=O)(=O)Nc1ccc2c(c1)C1(CCC3(CC3)CC1)CN(c1ccc(C#N)c(S(=O)(=O)NC(C)(C)C)c1)C2=O [Compound 120] | 
< 200 | 0.001 | > 10000 | COc1ccc(N2CC3(CCC4(CC4)CC3)c3cc(NS(=O)(=O)CCO)ccc3C2=O)nc1N1CCC(F)(F)CC1 [Compound 133] | Induction Fold (PXR): 1.7x
< 200 |  | > 10000 | COCCOc1ccc(N2CC3(CCC4(CC4)CC3)c3cc(NS(=O)(=O)CCO)ccc3C2=O)nc1N1CCC(F)(F)CC1 [Compound 136] | 
